Measurements: patent US20220061311A1, “COMPOSITIONS AND METHODS FOR REDUCING CRYOPRESERVATION TOXICITY” (The Regents of the University of Colorado, a body, priority 2018, published 2022)
pIC50: −log10 of the molar value. Values joined by “and” are separate entries in the source; they are usually repeats but may differ in a detail not shown here. Identical values can stand only once. Like-named read-outs stand apart in the source and are kept apart here.

Tests used:
HSBP1 protein = conditions: Arai et al., Chem. Sci., 2016; cited from earlier work
MYH9 protein = MYH9 protein (Homo sapiens, UniProt P35579); conditions: Chiu et al., Molecular Oncology 6, 2012; cited from earlier work
Sequence of MYH9 protein (P35579 whole entry, species assumed): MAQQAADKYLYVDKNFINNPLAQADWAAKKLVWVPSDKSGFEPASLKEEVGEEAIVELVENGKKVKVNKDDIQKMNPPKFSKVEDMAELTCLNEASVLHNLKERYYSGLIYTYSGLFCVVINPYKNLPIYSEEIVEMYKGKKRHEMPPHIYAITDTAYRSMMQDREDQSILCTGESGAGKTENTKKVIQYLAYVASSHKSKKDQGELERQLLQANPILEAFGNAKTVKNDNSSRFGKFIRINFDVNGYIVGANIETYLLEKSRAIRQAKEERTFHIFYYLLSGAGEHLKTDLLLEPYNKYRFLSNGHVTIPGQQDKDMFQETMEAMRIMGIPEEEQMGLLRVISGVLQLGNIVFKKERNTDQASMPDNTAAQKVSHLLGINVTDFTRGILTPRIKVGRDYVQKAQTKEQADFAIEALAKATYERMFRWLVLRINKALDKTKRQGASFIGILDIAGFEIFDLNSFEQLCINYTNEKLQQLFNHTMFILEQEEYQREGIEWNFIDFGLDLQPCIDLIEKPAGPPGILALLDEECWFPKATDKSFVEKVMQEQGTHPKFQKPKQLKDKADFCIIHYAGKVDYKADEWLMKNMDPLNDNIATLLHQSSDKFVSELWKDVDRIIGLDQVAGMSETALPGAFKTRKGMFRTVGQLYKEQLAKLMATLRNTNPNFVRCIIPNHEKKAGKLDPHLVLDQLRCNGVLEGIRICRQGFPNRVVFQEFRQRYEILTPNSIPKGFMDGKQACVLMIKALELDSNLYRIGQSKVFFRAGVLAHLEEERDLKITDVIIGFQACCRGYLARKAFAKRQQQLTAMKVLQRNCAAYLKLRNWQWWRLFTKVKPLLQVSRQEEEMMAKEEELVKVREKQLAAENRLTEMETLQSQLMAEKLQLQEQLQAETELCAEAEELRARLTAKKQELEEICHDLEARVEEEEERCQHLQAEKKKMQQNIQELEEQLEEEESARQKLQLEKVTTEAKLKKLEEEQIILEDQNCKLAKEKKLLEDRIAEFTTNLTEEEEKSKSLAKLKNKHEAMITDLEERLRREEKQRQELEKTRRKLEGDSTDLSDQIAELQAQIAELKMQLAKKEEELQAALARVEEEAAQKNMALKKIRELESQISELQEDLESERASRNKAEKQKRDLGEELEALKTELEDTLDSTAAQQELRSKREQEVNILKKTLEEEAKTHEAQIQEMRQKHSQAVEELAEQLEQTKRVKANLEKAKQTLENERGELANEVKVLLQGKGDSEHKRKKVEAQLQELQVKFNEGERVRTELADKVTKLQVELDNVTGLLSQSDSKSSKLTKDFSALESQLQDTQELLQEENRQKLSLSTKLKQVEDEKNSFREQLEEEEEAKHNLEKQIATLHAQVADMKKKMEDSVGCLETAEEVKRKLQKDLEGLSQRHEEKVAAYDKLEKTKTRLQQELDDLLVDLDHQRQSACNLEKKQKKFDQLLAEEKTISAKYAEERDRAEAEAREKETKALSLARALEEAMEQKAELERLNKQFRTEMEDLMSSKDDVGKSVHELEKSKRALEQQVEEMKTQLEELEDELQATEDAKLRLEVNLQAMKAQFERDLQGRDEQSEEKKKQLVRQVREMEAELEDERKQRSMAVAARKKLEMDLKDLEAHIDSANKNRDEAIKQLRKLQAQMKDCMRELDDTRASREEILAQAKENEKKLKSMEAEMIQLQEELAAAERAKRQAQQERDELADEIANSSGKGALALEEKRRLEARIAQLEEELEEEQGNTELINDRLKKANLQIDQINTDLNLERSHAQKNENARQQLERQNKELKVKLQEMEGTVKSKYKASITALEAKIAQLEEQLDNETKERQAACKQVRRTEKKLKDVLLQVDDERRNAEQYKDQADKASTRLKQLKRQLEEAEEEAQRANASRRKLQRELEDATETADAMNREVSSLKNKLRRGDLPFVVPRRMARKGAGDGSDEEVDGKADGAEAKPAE

[1] = tested on: Mouse embryonic stem cells (ESCs); assay: Afatinib pre-treatment of mouse embryonic stem cells before M22 toxicity challenge; assay type: cell-based
Procedure: Mouse embryonic stem cells (ESCs) were pre-treated with Afatinib in concentrations of 1 nM, 7.5 nM, 15 nM, 30 nM, and 75 nM. The ESCs were then subjected to various concentrations of M22, including a lethal challenge of 6% in normal culture media.

TJ1060 worms [2] = assay: Worms on 10% M22 +/- Afatinib in liquid survival medium; assay type: in vivo, C. elegans; design: Mean (survival): unit not given here
Procedure: FIG. 6 is a histogram. Sterile young adult worms (TJ1060) were put into liquid survival medium with 10% M22 and varying concentrations of Afatinib and followed until all were dead. Data from 4 replicate blinded experiments are shown.
Young adult worms from TJ1060 were grown on agar plates at 25° C. with varying concentrations of Afatinib and put into liquid survival medium with 10% M22+/−Afatinib at 20° C. They were followed until all were dead. Data from 4 replicate experiments are shown; experiments were blinded.

TJ1060 worms [3] = assay: Survival on Afatinib on agar plates; assay type: in vivo, C. elegans; design: Mean (survival): unit not given here; conditions: for Mean (survival) / survival (vs no Afatinib control): agar plates
Procedure: Eggs from TJ1060 were put onto NGM agar plates with varying concentrations of Afatinib at 25° C. On day 3, sterile staged young adult worms were moved to agar plates with Afatinib at 20° C. and followed until all were dead.

ERB3/4 = conditions: cited from earlier work
[4] = 10% M22 + Afatinib 10 nM, summary of 4 experiments
[5] = 10% M22 + Afatinib 100 nM, summary of 4 experiments
[6] = 10% M22 + Afatinib 1000 nM, summary of 4 experiments

COc1ccc(-c2cc(=O)c3c(O[C@@H]4O[C@H](CO[C@@H]5OC[C@@H](O)[C@H](O)[C@H]5O)[C@@H](O)[C@H](O)[C@H]4O)cc(OC)cc3o2)cc1 [Agalloside]
inhibition of HSBP1 protein (HSBP1 protein): Agalloside inhibits the HSBP1

Cc1ccc2c(c1)C(=O)C1(O)CCN(c3ccccc3)C1=N2 (stereo not shown) [Blebbistatin]
inhibition of MYH9 protein (MYH9 protein): Blebbistatin inhibits the MYH9

CN(C)C/C=C/C(=O)Nc1cc2c(Nc3ccc(F)c(Cl)c3)ncnc2cc1O[C@H]1CCOC1 [Afatinib]
resistance to M22 toxicity ([1]; ESCs pre-treated with Afatinib 1-75 nM, lower M22 concentrations (FIG. 1)): increased resistance to M22 toxicity
survival of otherwise lethal M22 challenge ([1]; ESCs pre-treated with Afatinib, 6% M22 in normal culture media (FIG. 1)): survived an otherwise lethal M22 challenge
survival of cells after cryopreservative toxicity challenge with M22 (FIG. 1) ([1]; cells treated with Afatinib prior to M22 challenge): increased survival
Mean (survival) (TJ1060 worms [2]; 10% M22 + Afatinib 10 nM, liquid, 20° C., single experiments): 12.4 and 12.3 and 14.6 and 10.4
resistance (vs no Afatinib control) (TJ1060 worms [2]; 10% M22 + Afatinib 10 nM, single experiments): ns and less
Mean (survival) (TJ1060 worms [2]; [4]): 12.5
resistance (vs no Afatinib control) (TJ1060 worms [2]; [4]): ns
Mean (survival) (TJ1060 worms [2]; 10% M22 + Afatinib 100 nM, liquid, 20° C., single experiments): 13.5 and 13.2 and 15.3 and 11.3
resistance (vs no Afatinib control) (TJ1060 worms [2]; 10% M22 + Afatinib 100 nM, single experiments): more and ns
Mean (survival) (TJ1060 worms [2]; [5]): 13.4
resistance (vs no Afatinib control) (TJ1060 worms [2]; [5]): more
Mean (survival) (TJ1060 worms [2]; 10% M22 + Afatinib 1000 nM, liquid, 20° C., single experiments): 13.2 and 13.0 and 15.6 and 10.3
resistance (vs no Afatinib control) (TJ1060 worms [2]; 10% M22 + Afatinib 1000 nM, single experiments): ns and more
Mean (survival) (TJ1060 worms [2]; [6]): 13.0
resistance (vs no Afatinib control) (TJ1060 worms [2]; [6]): ns
protection of worms in 10% M22 (TJ1060 worms [2]; Afatinib 10 or 1000 nm): not
survival in 10% M22 compared with control of no afatinib (FIG. 6) (TJ1060 worms [2]; Afatinib at 100 nM, 4 replicate blinded experiments, p<0.001): significantly better than control of no afatinib
protection of worms in 10% M22 (TJ1060 worms [2]; Afatinib concentration of 100 nm): protects worms in 10% M22
Mean (survival) (TJ1060 worms [3]; Afatinib 10 nM, no M22, single experiments): 20.5 and 19.7 and 19.1 and 22.1
survival (vs no Afatinib control) (TJ1060 worms [3]; Afatinib 10 nM, single experiments): less and ns
Mean (survival) (TJ1060 worms [3]; Afatinib 10 nM, summary): 20.3
survival (vs no Afatinib control) (TJ1060 worms [3]; Afatinib 10 nM, summary): ns
Mean (survival) (TJ1060 worms [3]; Afatinib 20 nM, no M22, single experiment): 21.1
survival (vs no Afatinib control) (TJ1060 worms [3]; Afatinib 20 nM, single experiment): ns
Mean (survival) (TJ1060 worms [3]; Afatinib 100 nM, no M22, single experiments): 19.4 and 21.1 and 19.8 and 21.8
survival (vs no Afatinib control) (TJ1060 worms [3]; Afatinib 100 nM, single experiments): less and more and ns
Mean (survival) (TJ1060 worms [3]; Afatinib 100 nM, summary): 20.4
survival (vs no Afatinib control) (TJ1060 worms [3]; Afatinib 100 nM, summary): ns
Mean (survival) (TJ1060 worms [3]; Afatinib 1000 nM, no M22, single experiments): 20.8 and 21.7 and 19.4 and 20.0
survival (vs no Afatinib control) (TJ1060 worms [3]; Afatinib 1000 nM, single experiments): ns and more and less
Mean (survival) (TJ1060 worms [3]; Afatinib 1000 nM, summary): 20.6
survival (vs no Afatinib control) (TJ1060 worms [3]; Afatinib 1000 nM, summary): less
longevity effect (TJ1060 worms [3]; worms, Afatinib without M22): did not have a longevity effect
pIC50 (ERB3/4; read-out: IC50): ~9.00
pIC50 (ERB3/4; read-out: IC50 DOSE): 9.00
